Experimental data as given in PubChem BioAssay AID200 (DTP/NCI, 2004).
Several values for one entry are separate records, joined by “and”; a condition that tells them apart may be missing. Equal entries are not always repeated. Inconclusive results and toxic doses are left out. *1 amine or outer side, *2 acyl side, *3 side chain or, on linkers, in order; H or OH if unused. Where a SMILES comes first, the peptide text is derived from it. Bridges are numbered along the chain shown (N, C = ends). Roman numbers before positions name the chains, in order. [ ]: non-standard residue; d: D form. The star is where a group is joined. ξ: configuration not given here. Quinaldoyl(3-OH,6-OMe) = COc1ccc2nc(C(=O)*)c(O)cc2c1; X6 = CCC(=O)OC1CC=NN([*:1])C1C(=O)[*:2]; X7 = CC(=O)OC1CC=NN([*:1])C1C(=O)[*:2]; ξNMeVal(3-OH) = CNC(C(=O)O)C(C)(C)O; Cbz = O=C(OCc1ccccc1)*; Sar = CNCC(=O)O

Tested on: B6C3F1 mice, B16 melanoma ip, median survival T/C
Assay: NCI In Vivo Anticancer Drug Screen. Data for tumor model B16 Melanoma (intraperitoneal) in B6C3F1 mice
Settings: endpoint: median survival time, schedule: Q01DX009 (ip), higher = longer survival
Summary of the method: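 Transplantable tumor in mice; treated vs vehicle control groups; survival or tumor size measured; value = T/C ratio.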

[1] = dose: 1.56 mg/kg/injection, vehicle: saline
[2] = dose: 6.25 mg/kg/injection, vehicle: Klucel (hydroxypropylcellulose) (HPC)
[3] = dose: 6.25 mg/kg/injection, vehicle: saline
[4] = dose: 12.5 mg/kg/injection, vehicle: Klucel (hydroxypropylcellulose) (HPC)
[5] = dose: 12.5 mg/kg/injection, vehicle: saline
[6] = dose: 25.0 mg/kg/injection, vehicle: saline
[7] = dose: 50.0 mg/kg/injection, vehicle: saline
[8] = dose: 100.0 mg/kg/injection, vehicle: saline
[9] = dose: 25.0 mg/kg/injection, vehicle: Klucel (hydroxypropylcellulose) (HPC)
[10] = dose: 50.0 mg/kg/injection, vehicle: Klucel (hydroxypropylcellulose) (HPC)
[11] = dose: 100.0 mg/kg/injection, vehicle: Klucel (hydroxypropylcellulose) (HPC)
[12] = dose: 200.0 mg/kg/injection, vehicle: Klucel (hydroxypropylcellulose) (HPC)
[13] = dose: 400.0 mg/kg/injection, vehicle: Klucel (hydroxypropylcellulose) (HPC)
[14] = dose: 6.25 mg/kg/injection, vehicle: saline with Tween-80
[15] = dose: 12.5 mg/kg/injection, vehicle: saline with Tween-80
[16] = dose: 25.0 mg/kg/injection, vehicle: saline with Tween-80
[17] = dose: 50.0 mg/kg/injection, vehicle: saline with Tween-80
[18] = dose: 100.0 mg/kg/injection, vehicle: saline with Tween-80
[19] = dose: 200.0 mg/kg/injection, vehicle: saline with Tween-80

With `O=C(O)C1CSCN1` (stereo unspecified) the T/C (dose: 0.39 mg/kg/injection, vehicle: Klucel (hydroxypropylcellulose) (HPC)) was 95 % of control, the T/C (dose: 0.78 mg/kg/injection, vehicle: Klucel (hydroxypropylcellulose) (HPC)) was 99 % of control and the T/C (dose: 1.56 mg/kg/injection, vehicle: Klucel (hydroxypropylcellulose) (HPC)) was 97 % of control. The T/C [1] was 96 % of control, the T/C (dose: 3.12 mg/kg/injection, vehicle: Klucel (hydroxypropylcellulose) (HPC)) was 86 % of control and the T/C (dose: 3.12 mg/kg/injection, vehicle: saline) was 86 % of control. For the same compound, the T/C [2] was 93 % of control, the T/C [3] was 90 % of control and 107 % of control and the T/C [4] was 87 % of control. The T/C [5] was 116 % of control and 98 % of control and 102 % of control, the T/C [6] was 117 % of control and 104 % of control and the T/C [7] was 110 % of control and 121 % of control. For the same compound, the T/C [8] was 112 % of control and 101 % of control.

`OCC1OC(n2cnc3c(NO)ncnc32)C(O)C1O` (stereo unspecified) was tested, and the T/C [4] was 101 % of control and 105 % of control, the T/C [9] was 93 % of control and 100 % of control and the T/C [10] was 96 % of control and 98 % of control. The T/C [11] was 97 % of control and 101 % of control, the T/C [12] was 91 % of control and 95 % of control and the T/C [13] was 86 % of control and 87 % of control.

For `C[C@]12CC[C@@H]3c4ccc(O)cc4CC[C@H]3[C@@H]1CC[C@@H]2O`, the T/C [2] was 89 % of control, the T/C [4] was 98 % of control and the T/C [9] was 90 % of control. The T/C [10] was 94 % of control, the T/C [11] was 90 % of control and the T/C [12] was 89 % of control.

With `CC1/C=C/C=C/CC/C=C/C=C/C=C/C=C/C(OC2OC(C)C(O)C(N)C2O)CC2OC(CC(O)C(O)CCC(O)CC(O)CC(O)CC(=O)OC(C)C(C)C1O)CC(O)C2C(=O)O` (stereo unspecified) the T/C [14] was 107 % of control, the T/C [15] was 96 % of control and the T/C [16] was 102 % of control. For the same compound, the T/C [17] was 98 % of control and the T/C [18] was 90 % of control.

`CCOC(=O)C(Cc1c[nH]c2ccccc12)NC(=O)C(Cc1ccccc1)NC(=O)C(Cc1cnc[nH]1)NC(=O)OCc1ccccc1` (stereo not drawn) (Cbz-His-Phe-Trp-OEt; configuration not given here) was tested, and the T/C [12] was 90 % of control.

`Cc1cc(NC(=S)SCc2ccc3c(c2)OCO3)ccc1Cl` was tested, and the T/C [10] was 103 % of control and the T/C [11] was 112 % of control.

With `CC(/C=N/N=C(N)N)=N\N=C(N)N` the T/C [6] was 110 % of control, the T/C [7] was 111 % of control and the T/C [8] was 95 % of control.

With `Cc1ccc(N)c(N)c1` the T/C [16] was 95 % of control, the T/C [17] was 99 % of control and the T/C [18] was 102 % of control. The T/C [19] was 104 % of control.

For `CCCC(NC(=O)CN)C(=O)O` (stereo unspecified), the T/C [6] was 108 % of control, the T/C [7] was 100 % of control and the T/C [8] was 99 % of control. For the same compound, the T/C (dose: 200.0 mg/kg/injection, vehicle: saline) was 94 % of control and the T/C (dose: 400.0 mg/kg/injection, vehicle: saline) was 108 % of control.

With `Cc1ncc(O)c(CO)c1O` the T/C (dose: 0.78 mg/kg/injection, vehicle: saline) was 102 % of control, the T/C [1] was 102 % of control and the T/C (dose: 3.13 mg/kg/injection, vehicle: saline) was 99 % of control. The T/C [3] was 105 % of control, the T/C [5] was 101 % of control and the T/C [6] was 91 % of control. For the same compound, the T/C [7] was 96 % of control.

With `O=C1C(Cl)=C(Cl)C(=O)C2=C1C1c3ccccc3C2c2ccccc21` the T/C [18] was 94 % of control and the T/C [19] was 86 % of control.

With `COC(CCC(C)C1OC23CC(OC(=O)CC(C(C)O)OC(=O)CC(O)(O2)C(C)CC3(C)C)C1C)c1cccc(O)c1` (stereo unspecified) the T/C (dose: 12.5 micrograms/kg/injection, vehicle: saline + Tween-80 + alcohol) was 96 % of control, the T/C (dose: 25.0 micrograms/kg/injection, vehicle: saline + Tween-80 + alcohol) was 97 % of control and the T/C (dose: 50.0 micrograms/kg/injection, vehicle: saline + Tween-80 + alcohol) was 104 % of control. For the same compound, the T/C (dose: 100.0 micrograms/kg/injection, vehicle: saline + Tween-80 + alcohol) was 102 % of control.

With `CCC(=O)OC1CC=NN2C(=O)C(NC(=O)c3nc4ccc(OC)cc4cc3O)COC(=O)C(C(C)(C)O)N(C)C(=O)CN(C)C(=O)CNC(=O)C3C(OC(C)=O)CC=NN3C(=O)C(NC(=O)c3nc4ccc(OC)cc4cc3O)COC(=O)C(C(C)(C)O)N(C)C(=O)CN(C)C(=O)CNC(=O)C12` (stereo unspecified) (I: {Quinaldoyl(3-OH,6-OMe)}-S[X6]G[Sar][ξNMeVal(3-OH)] / II: {Quinaldoyl(3-OH,6-OMe)}-S[X7]G[Sar][ξNMeVal(3-OH)]; ester I:1-II:C, I:C-II:1; configuration not given here) the T/C (dose: 4.0 micrograms/kg/injection, vehicle: saline) was 98 % of control, the T/C (dose: 8.0 micrograms/kg/injection, vehicle: saline) was 105 % of control and the T/C (dose: 16.0 micrograms/kg/injection, vehicle: saline) was 111 % of control.

For `CN(CC(=O)O)C(=O)CNC(=O)CNC(=O)OCc1ccccc1` (HELM PEPTIDE1{[O=C(OCc1ccccc1)[*:2]].G.G.[Sar]}$$$$V2.0), the T/C [11] was 104 % of control, the T/C [12] was 107 % of control and the T/C [13] was 98 % of control.

`CC(=O)OC1=NC(C)c2c1cc(OC(C)=O)[nH]c2=O` (stereo unspecified) was tested, and the T/C [2] was 116 % of control and 105 % of control, the T/C [4] was 110 % of control and 98 % of control and the T/C [9] was 113 % of control and 100 % of control. For the same compound, the T/C [10] was 90 % of control and 101 % of control and the T/C [11] was 88 % of control.

For `COc1cc2c(c3c1c(=O)c1cccc(F)c1n3C)C=CC(C)(C)O2`, the T/C [9] was 109 % of control, the T/C [10] was 119 % of control and the T/C [11] was 88 % of control.

`O=S1(=O)CS(=O)(=O)OCCO1` was tested, and the T/C [2] was 111 % of control, the T/C [4] was 153 % of control and 161 % of control and the T/C [10] was 117 % of control.

For `CCCCC(NC(=O)OC(C)(C)C)C(=O)O` (stereo unspecified), the T/C [11] was 97 % of control, the T/C [12] was 111 % of control and the T/C [13] was 90 % of control.

In the case of `Nc1ncn(C2CC(O)C(CO)O2)c(=O)n1` (stereo unspecified), the T/C (dose: 0.25 mg/kg/injection, vehicle: Klucel (hydroxypropylcellulose) (HPC)) is reported as 86 % of control, the T/C (dose: 0.25 mg/kg/injection, vehicle: saline) is reported as 117 % of control and the T/C (dose: 15.62 micrograms/kg/injection, vehicle: Klucel (hydroxypropylcellulose) (HPC)) is reported as 87 % of control. For the same compound, the T/C (dose: 31.25 micrograms/kg/injection, vehicle: Klucel (hydroxypropylcellulose) (HPC)) was 86 % of control, the T/C (dose: 125.0 micrograms/kg/injection, vehicle: Klucel (hydroxypropylcellulose) (HPC)) was 114 % of control and the T/C (dose: 250.0 micrograms/kg/injection, vehicle: Klucel (hydroxypropylcellulose) (HPC)) was 97 % of control.

In the case of `CCCC(NC(=O)OCc1ccccc1)C(=O)NC(Cc1c[nH]c2ccccc12)C(=O)O` (stereo unspecified), the T/C [11] is reported as 107 % of control, the T/C [12] is reported as 99 % of control and the T/C [13] is reported as 100 % of control.

`COc1cc2c[n+](C)c3c(c2cc1OC)Cc1cc2c(cc1-3)OCO2` was tested, and the T/C [15] was 120 % of control, the T/C (dose: 12.5 mg/kg/injection, vehicle: suspension in saline) was 111 % of control and the T/C (dose: 25.0 mg/kg/injection, vehicle: suspension in saline) was 111 % of control. For the same compound, the T/C (dose: 50.0 mg/kg/injection, vehicle: suspension in saline) was 110 % of control.

For `CS(=O)(=O)OCCN(CCOS(C)(=O)=O)c1ccc(C=O)cc1`, the T/C (dose: 3.12 mg/kg/injection, vehicle: saline with Tween-80) was 151 % of control, the T/C [14] was 162 % of control and the T/C [15] was 186 % of control.

In the case of `N#CCCCCCCCCCCC(=O)O`, the T/C [18] is reported as 93 % of control, the T/C [19] is reported as 96 % of control and the T/C (dose: 400.0 mg/kg/injection, vehicle: saline with Tween-80) is reported as 99 % of control.

For `C=CC1(C)CCC2C(=CCC3C2(C)CC(O)C(O)C3(C)COC2OC(CO)C(O)C(O)C2O)C1` (stereo unspecified), the T/C (dose: 1.5 mg/kg/injection, vehicle: Klucel (hydroxypropylcellulose) (HPC)) was 116 % of control, the T/C (dose: 3.0 mg/kg/injection, vehicle: Klucel (hydroxypropylcellulose) (HPC)) was 103 % of control and the T/C (dose: 6.0 mg/kg/injection, vehicle: Klucel (hydroxypropylcellulose) (HPC)) was 113 % of control. The T/C (dose: 12.0 mg/kg/injection, vehicle: Klucel (hydroxypropylcellulose) (HPC)) was 107 % of control and the T/C (dose: 24.0 mg/kg/injection, vehicle: Klucel (hydroxypropylcellulose) (HPC)) was 108 % of control.

`CN(C)CCOc1ccc2c(c1)C/C(=C/c1ncc([N+](=O)[O-])n1C)C2=O` was tested, and the T/C [14] was 100 % of control, the T/C [15] was 104 % of control and the T/C [16] was 100 % of control. For the same compound, the T/C [17] was 111 % of control.
